Experimental data: US20240287044A1, “SALT OF SELECTIVE FGFR4 INHIBITOR, AND PREPARATION METHOD THEREFOR AND APPLICATION THEREOF” (ZHEJIANG HISUN PHARMACEUTICAL CO., LTD., priority 2021, published 2024)
Where “and” joins values, the source holds several entries; their conditions need not be identical. Identical values can stand only once. Counter-ions that a name gives are not always drawn.

Legend:
[1] = test system: Hep3B human liver carcinoma subcutaneous transplanted tumor; test: Subcutaneous transplantation model of Hep3B human liver carcinoma; format: in vivo, BALB/c nude mice; conditions: for anti-tumor activity (in words): Hep3B model, 50 mg/kg twice a day gavage 10 days
Protocol: Preparation of administration formulation for gavage administration: sorafenib, free-base compounds as represented by formula (I) and its maleate salts, phosphate salts, hydrochloride salts, mesylate salts, and ethanesulfonate salts were accurately weighed respectively, and an appropriate volume of normal saline was added, and then vortex oscillation was performed until mixed well, and the administration formulation was prepared just before use.
BALB/c nude mice, female, purchased from Jiangsu Jicui Pharmacom Biotechnology Co. Licence No.: SCXK (Su) 2019-0009, Animal Qualification Certificate No.: 202102418.
After arrival, animals were required to be kept in the experimental environment for 7 days before starting the experiment. The experimental animals were kept in intelligent independent ventilation cages (IVC) with constant temperature and humidity. The temperature was maintained at 20-26° C. and the humidity was maintained at 40-70%. Under a light-dark cycle of 10 hours light/14 hours dark, the experimental animals were allowed to free access to food and water. The animals were labeled using ear tag.
Establishment of subcutaneous tumor model of Hep3B cell: 0.2 mL of a cell suspension containing 3.5×10^6 Hep3B cells was inoculated subcutaneously on the right side of the back of female BALB/c nude mice aged over 6 weeks to establish a transplant tumor. The diameter of tumor was measured with a vernier caliper, and tumor volume was calculated using the following formula: tumor volume=0.5×a×b^2, where a and b represented the long and short diameter of the tumor, respectively. The tumor-bearing mice were randomly divided into 9 groups and administered according to the experimental design when the average tumor volume was at a range of 200-250 mm^3. Mice in each treatment group and solvent control group were subjected to orally intragastric administration for 10 days. The tumor volume of mice was measured twice weekly, and the body weight was weighed daily. The curative effect was assessed based on the relative tumor growth inhibition (TGI) rate (%), and safety was evaluated according to the change of body weight and mortality of animals.

[2] = Pharmacokinetics of different salt forms (ICR mice); format: in vivo; conditions: 75 mg·kg^−1 single gavage, fasted, normal saline, plasma
Protocol: After vortex oscillation, ultrasonication was carried out. If necessary, shearing and emulsification or grinding could be carried out until well mixed, to obtain an administration formulation with a concentration of 7.5 mg· mL^−1.
(§1) Experimental animals were kept in animal rooms, which were well ventilated and equipped with air conditioning, and the temperature was maintained at 20-25° C., humidity at 40%-70%, and light and dark lighting for 12 hours each, and the experimental animals were allowed to eat and drink freely. After normal feeding for about 5 days, rats with good physical condition could be selected for this experiment after examination by a veterinary. Each rat was marked with a tail number.
(§2) The detailed administration regimen of the ICR mice experiment is seen in Table 5. On the day before the experiment, all ICR mice were fasted overnight (equal to or more than 12 hours). On the day of the experiment, after weighing, the theoretical administration volume for each mouse was calculated according to the following formula. The administration formulation should be prepared on the day of the experiment, and the interval between preparation and administration should not exceed 2 hours. The actual administration amount of each rat and the collection time of the plasma sample should be recorded in detail in the corresponding table. ICR mice were allowed to restore eating 4 hours after administration, and were allowed to drink water freely during the experiment.
Before and 0.25, 0.5, 1, 2, 4, 8, 10, 12 and 24 hours after administration, 0.15 mL blood was collected from fundus venous plexus and placed into anticoagulant tubes containing EDTA-K2.
All whole blood samples were subjected to centrifugation for 10 minutes (5500 rpm), and then the plasma was separated and stored in a refrigerator at −30 to −10° C.

[3] = Pharmacokinetic study on different salt forms (SD rats); format: in vivo; conditions: 20 mg·kg^−1 single gavage, fasted, 0.5% CMC-Na, plasma
Protocol: After vortex oscillation, ultrasonication was carried out. If necessary, shearing and emulsification or grinding could be carried out until well mixed, to obtain an administration formulation with a concentration of 2 mg· mL^−1.
as §1
as §2, with “the animal” for “the ICR mice”, “Table 2.” for “Table 5.”, “all SD rats” for “all ICR mice”, “each rat” for “each mouse”, “table. SD rats” for “table. ICR mice”
Before and 0.25, 0.5, 1, 2, 4, 8, 12 and 24 hours after administration, 0.15 mL blood was collected from jugular vein and placed into anticoagulant tubes containing EDTA-K2.
All whole blood samples were subjected to centrifugation for 10 minutes (5500 rpm), and then the plasma was separated and stored in a refrigerator at −30° C. to −10° C.
The corresponding pharmacokinetic parameters were calculated using the […] of Pharsight Phoenix 7.0, and the results are shown in Table 3 below.

[4] = test system: hepatocellular carcinoma cells Hep3B; conditions: in vitro, read-out: IC50 value, inhibitory activity against Hep3B; cited from earlier work
[5] = day 11 after administration, gavage 10 days, 50 mg/kg twice a day (based on formula (I)), sorafenib 30 mg/kg once a day
[6] = day 11 after administration, gavage 10 days, 50 mg/kg twice a day (based on formula (I)), sorafenib 30 mg/kg once a day, listed as sorafenib

AUC0-t [3] [µg·h/mL] | Cmax [3] [µg/mL] | T1/2 [3] [h] | Tmax [3] [h] | Structure (SMILES) | anti-tumor activity (in words) [1] | tumor volume (x ± S) [1, 5] | also measured
0.35727 | 0.09939 | 3.01 | 0.42 | C=CC(=O)Nc1cc(N2CCN(CC)C3(CC3)C2)ccc1Nc1cc(N(C)C(=O)Nc2c(Cl)c(OC)cc(OC)c2Cl)ncn1 [mesylate salt] | significant anti-tumor activity | 93 mm^3 and 93 ± 32 mm^3 | AUC0-t [2]: 8.66 µg·h/mL; Cmax [2]: 3.74 µg/mL; T1/2 [2]: 1.78 h; Tmax [2]: 0.250 h
0.41081 | 0.14181 | 2.37 | 1.50 | C=CC(=O)Nc1cc(N2CCN(CC)C3(CC3)C2)ccc1Nc1cc(N(C)C(=O)Nc2c(Cl)c(OC)cc(OC)c2Cl)ncn1 [ethanesulfonate salt] | significant anti-tumor activity | 121 mm^3 and 121 ± 17 mm^3 | AUC0-t ([2]; ICR, mouse, po, 75 mg/kg, read-out: AUC0-t): 9.66 µg·h/mL; Cmax ([2]; ICR, mouse, po, 75 mg/kg, read-out: Cmax): 4.11 µg/mL; Tmax ([2]; ICR, mouse, po, 75 mg/kg, read-out: Tmax): 0.5 h
– | – | – | – | CNC(=O)c1cc(Oc2ccc(NC(=O)Nc3ccc(Cl)c(C(F)(F)F)c3)cc2)ccn1 [Sorafenib, reference compound] | – | 1238 ± 199 mm^3 | T/C (%) relative tumor proliferation rate [1, 5]: 57.10%; TGI (%) relative tumor growth inhibition [1, 5]: 42.90%; relative tumor volume (x ± S) [1, 5]: 5.50 ± 0.22; TGI (%) relative tumor growth inhibition [1, 6]: 42.9%; tumor volume (x ± S) [1, 6]: 1238 mm^3
0.19455 | 0.05274 | – | 4.00 | C=CC(=O)Nc1cc(N2CCN(CC)C3(CC3)C2)ccc1Nc1cc(N(C)C(=O)Nc2c(Cl)c(OC)cc(OC)c2Cl)ncn1 [Free base, N-(2-((6-(3-(2,6-dichloro-3,5-dimethoxyphenyl)-1-methylureido)pyrimidin-4-yl)amino)-5-(4-ethyl-4,7-diazaspiro[2.5]octane-7-yl)phenyl) acrylamide] | significant anti-tumor activity | – | tumor volume (x ± S) ([1]; day 11 after administration, gavage 10 days, 50 mg/kg twice a day (based on formula (I)), sorafenib 30 mg/kg once a day, listed as compound as represented by formula): 314 ± 72 mm^3; tumor volume (x ± S) ([1]; day 11 after administration, gavage 10 days, 50 mg/kg twice a day (based on formula (I)), sorafenib 30 mg/kg once a day, listed as compound as represented by formula (I)): 314 mm^3; IC50 [4]: 0.019 µM; half-life ([3]; SD, rat, po, 20 mg/kg): 2.15 h
